Experiment in all cases: inhibition of tumour cell growth, NCI panel, 48 h
In assay [1] the test system is SW-620 colon.
Assay [2] relates to KM12 colon.
The test system of assay [3] is RXF 393 renal.
Assay [4] deals with CAKI-1 renal.
For assay [5], the system named is SNB-19 CNS.
In assay [6] the test system is NCI-H23 lung.
The test system of assay [7] is RPMI-8226 leukemia.
In assay [8] the test system is OVCAR-8 ovarian.
The subject of assay [9] is LOX IMVI melanoma.
Assay [10] concerns SN12C renal.

Values joined by “and” are separate entries in the source; they are usually repeats but may differ in a detail not shown here. Identical values can stand only once.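 Following 48 hours of exposure in 96-well plates, responses at five concentrations were used to interpolate endpoints linearly. GI50 = concentration required for 50% inhibition of growth. TGI is the concentration that stops growth completely.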

As to `CC1OC(OCC2OC(Oc3c(-c4ccc(O)cc4)oc4cc(O)cc(O)c4c3=O)C(OC3OC(C)C(O)C(O)C3O)C(O)C2O)C(O)C(O)C1O` (configuration not stated), the TGI was above 62.4 µM in assay [1]; above 100 µM in assay [2]; above 100 µM in assay [3]; above 100 µM in assay [4]; above 100 µM in assay [5]; above 100 µM in assay [6]. Also, the TGI in assay [7] was above 81.3 µM; in assay [8], above 100 µM; in assay [9] it was above 100 µM; in [10], above 100 µM.
As for `CC(=O)NNc1nc(C)c(C(=O)NNC(=O)C(=O)Nc2c(C)cccc2C)s1`, the TGI is above 100 µM in [1]; above 100 µM in assay [2]; 88.2 µM in assay [3]; above 100 µM in assay [4]; above 100 µM in assay [5]; 60.1 µM in assay [6]. Further, the TGI in assay [7] was above 100 µM; in assay [8], 80.1 µM; in [9] it was above 100 µM; in assay [10], above 100 µM.
Regarding `CC1CC2CC(=O)CC3(C1)C2CCCN3CCCO` (configuration not stated), the TGI in assay [1], in assay [2], in assay [3], in assay [4], in [5] and in [6] was above 100 µM throughout. For the same molecule, the TGI in assay [7], in [8], in assay [9] and in assay [10] was above 100 µM throughout.
For the molecule `CC1(C)C(=O)C(C)(C)C1=NN`, the TGI in assay [1], in assay [2], in [3], in assay [4], in assay [5] and in assay [6] was above 100 µM in each case. Further, the TGI in [7], in assay [8], in [9] and in assay [10] was above 100 µM each time.
On to `CCCC(=O)Nc1cc(C(=O)N2C[C@@H]3C[C@]34C2=CC(=O)c2[nH]cc(C)c24)n(COC)c1`, for which the GI50 was 2.7 µM in assay [1]; 4.58 µM in assay [2]; 4.25 µM in assay [4]; 3.36 µM in assay [5]; 1.38 µM in assay [6]; 2.57 µM in assay [7]. Besides, the GI50 is 2.06 µM in assay [9] and 4.45 µM in assay [10]. The TGI was 50 µM and 19.9 µM in assay [1]; 20.4 µM and 21.5 µM in [2]; 9.21 µM and 3.33 µM in [3]; 13 µM and 17.3 µM in [4]; 50 µM and 14.5 µM in assay [5]; 9.19 µM and 3.6 µM in assay [6]. Moreover, the TGI was 37.3 µM and 8.36 µM in [7]; 9.06 µM and 5.87 µM in [8]; 30 µM and 7.17 µM in assay [9]; 31.7 µM and 16.1 µM in assay [10].
Regarding `Oc1ccc(C(c2ccc(O)cc2)c2ccc(Cl)cn2)cc1`, the GI50 in assay [1] is 60.7 µM; in [2] it was 0.463 µM; in assay [3], 0.0593 µM; in assay [4] it was 22.1 µM; in assay [5], 19.1 µM; in assay [6] it was 0.0959 µM. In addition, the GI50 in [7] was 21.1 µM; in assay [8], 0.0346 µM; in [9] it was 0.295 µM; in assay [10], 0.0408 µM. Further, the TGI in assay [1] is above 100 µM; in assay [2], above 100 µM; in [3], 1.65 µM; in [4], above 100 µM; in assay [5] it was above 100 µM; in [6], 0.983 µM. In addition, the TGI in assay [7] was above 84.8 µM; in assay [8] it was 1.16 µM; in assay [9] it was above 100 µM; in [10], 0.331 µM.
For `CC1(C)CC[C@H](Nc2ncc(C(F)(F)F)c(-c3c[nH]c4c(P(C)(C)=O)c(C#N)ccc34)n2)CN1`, the GI50 in assay [1] is 0.0225 µM; in assay [2], 0.19 µM; in assay [3], 0.777 µM; in assay [4] it was 0.0361 µM; in assay [5] it was 0.0439 µM; in [6], below 0.01 µM. Moreover, the GI50 was below 0.01 µM in assay [7], 0.469 µM in assay [8], 0.0297 µM in assay [9] and 0.141 µM in [10]. Moreover, the TGI in [1] was 13.2 µM; in [2], 13.2 µM; in [3], 4 µM; in assay [4] it was above 37.6 µM; in assay [5] it was above 54.3 µM; in [6], 3.44 µM. Besides, the TGI was 3.43 µM in [7], above 50.2 µM in assay [8], 7.44 µM in assay [9] and 32.2 µM in assay [10].
With `O=C(/C=C/C12c3ccccc3C(c3ccccc31)C1C(=O)N(c3ccccc3)C(=O)C12)c1ccccc1` (configuration not stated), the GI50 in assay [1] was 2.74 µM; in assay [2], 2.64 µM; in [3], 1.21 µM; in [4] it was 1.5 µM; in assay [5], 3.08 µM; in assay [6] it was 2.69 µM. In addition, the GI50 in assay [7] is 1.55 µM; in [8], 1.79 µM; in [9] it was 1.66 µM; in [10] it was 2.53 µM. The TGI is above 100 µM in [1]; above 100 µM in assay [2]; 2.82 µM in assay [3]; above 100 µM in [4]; above 100 µM in assay [5]; 18.1 µM in assay [6]. In addition, the TGI is 7.69 µM in [7], above 100 µM in assay [8], 3.51 µM in assay [9] and above 100 µM in assay [10].
Regarding `O=C(O)[C@@H]1[C@H](C(=O)O)[C@H](C(=O)O)C[C@@H]1C(=O)O`, the TGI in assay [1], in [2], in assay [3], in [4], in [5] and in assay [6] was above 100 µM in each case. In addition, the TGI in [7], in assay [8], in [9] and in assay [10] was above 100 µM each time.
`COc1cc(/C=C2\CCC/C(=C\c3cc(OC)c(O)c(OC)c3)C2=O)cc(OC)c1O`: the TGI in [1] is 75 µM and > 100 µM; in [2], 8.33 µM; in [3], 3.22 µM; in assay [4] it was 4.38 µM and 7.62 µM; in assay [5] it was 75 µM and > 100 µM; in [6] it was 3.5 µM and 4.19 µM. Moreover, the TGI in [7] was 7.54 µM; in assay [8], 75 µM; in assay [10], 75 µM and > 100 µM. Besides, the GI50 in [4] is 2.51 µM; in [5], 3.61 µM; in assay [9], 1.53 µM; in assay [10] it was 4.37 µM.
For `COc1cc(/C=C\c2ccccc2)cc(OC)c1OC`, the TGI in [1] is above 100 µM; in assay [2], above 73.1 µM; in assay [3], 5.25 µM; in [4] it was above 100 µM; in assay [5], above 77.5 µM; in assay [6], 19.5 µM. In addition, the TGI in assay [7] is 46.2 µM; in [8], 46.7 µM; in assay [9], above 100 µM; in assay [10], 48.6 µM.
For the molecule `C/C(=N\O)c1cccc(Nc2cc(-n3ccnn3)c3ccccc3n2)c1`, the GI50 in assay [1] is 21.1 µM; in assay [2], 15.1 µM; in assay [3], 13.6 µM; in assay [4], 21.3 µM; in assay [5], 45.6 µM; in [6] it was 21.3 µM. Moreover, the GI50 is 12.5 µM in assay [7], 17.5 µM in assay [8], 15.4 µM in assay [9] and 15.4 µM in assay [10]. Besides, the TGI in assay [1] was 50.6 µM; in assay [2], 33.3 µM; in [3], 39.8 µM; in assay [4], 70.6 µM; in assay [5], above 100 µM; in [6], 48.6 µM. For the same molecule, the TGI in [7] worked out at 32 µM; in assay [8] it was 41 µM; in assay [9], 30.4 µM; in assay [10], 34 µM.
With `CCC(=O)O[C@H]1CC[C@H]2[C@@H]3CC[C@H]4CC(=O)[C@H](C)C[C@]4(C)[C@H]3CC[C@]12C`, the GI50 was 31.9 µM in assay [1]; 34.6 µM in assay [2]; 30.5 µM in [3]; above 41.7 µM in [4]; above 100 µM in assay [5]; 43.6 µM in assay [6]. Besides, the GI50 in assay [7] was 2.52 µM; in assay [8] it was 43.1 µM; in [9], 25.2 µM; in assay [10] it was above 85.2 µM. The TGI in [1], in assay [2], in [3], in assay [4], in [5] and in assay [6] was above 100 µM throughout. In addition, the TGI was 13 µM in assay [7], above 100 µM in [8], above 100 µM in [9] and above 100 µM in [10].
Turning to `COc1ccc2c(c1)/C(=C\c1cccnc1)C(=O)N2`, the GI50 in [1] was 41 µM; in assay [2] it was 19.7 µM; in assay [3] it was 13.4 µM; in [4], 3.68 µM; in [5] it was 16.2 µM; in assay [6], 16.6 µM. The GI50 was 18.6 µM in assay [7], 11.8 µM in assay [8], 8.83 µM in assay [9] and 7.38 µM in [10]. Further, the TGI in assay [1] was above 100 µM; in assay [2], 57.8 µM; in assay [3] it was 37 µM; in assay [4], 9.05 µM; in assay [5], 51.6 µM; in assay [6], 35 µM. In addition, the TGI stood at 76.7 µM in assay [7], 43.6 µM in [8], 25.3 µM in assay [9] and 29.4 µM in assay [10].
As for `COc1ccc(-c2oc3c(OC)c(OC)c(OC)c(O)c3c(=O)c2OC)cc1OC`, the TGI in [1] was above 66.1 µM; in [2] it was above 100 µM; in [3], 87.4 µM; in assay [4], above 100 µM; in assay [5], above 100 µM; in assay [6], above 83.8 µM. Moreover, the TGI in assay [7] was 59.3 µM; in assay [8], above 100 µM; in assay [9] it was above 76.3 µM; in assay [10], above 100 µM.
On to `O=C(c1ccc(Cl)cc1)c1ccc(OCCCCCCCCCCOc2ccc(C(=O)c3ccc(Cl)cc3)cc2)cc1`, for which the TGI in assay [1], in assay [2], in assay [3], in assay [4], in assay [5] and in [6] was above 100 µM throughout. For the same molecule, the TGI in assay [7], in assay [8], in assay [9] and in [10] was above 100 µM each time.
Regarding `C=CCN(/C=C1/C(=O)O[C@H](COC)[C@@]2(C)C1=C(O)C(=O)C1=C2[C@H](OC(C)=O)C[C@]2(C)C(=O)CC[C@@H]12)CC=C`, the GI50 in assay [1] was 2.17 µM; in assay [2] it was 2.52 µM; in assay [3], 0.112 µM; in assay [4] it was 0.357 µM; in assay [5], 3.45 µM; in assay [6] it was above 5.65 µM. Besides, the GI50 was 2 µM in assay [7], 2.87 µM in assay [8], 1.65 µM in assay [9] and 1.11 µM in assay [10]. The TGI was above 10 µM in assay [1]; above 10 µM in [2]; 1.56 µM in assay [3]; above 10 µM in [4]; above 10 µM in assay [5]; above 10 µM in assay [6]. Moreover, the TGI in [7], in [8], in assay [9] and in [10] was above 10 µM in each case.
Regarding `NC1CCCCC1.[O]=[Ge].[O]=[Ge].[O]=[Ge][OH].[O]=[Ge][OH]`, the TGI in assay [1], in [2], in assay [3], in assay [4], in assay [5] and in assay [6] was above 100 µM throughout. Also, the TGI in assay [7], in [8], in assay [9] and in [10] was above 100 µM in each case. In addition, the GI50 in assay [4] is above 100 µM.
In the case of `Cc1ccc(/C(=N\N=C(N)N)c2ccccc2)cc1`, the GI50 was 0.418 µM in assay [1]; 0.367 µM in assay [2]; 0.296 µM in [3]; 0.843 µM in assay [4]; 0.455 µM in assay [5]; 0.597 µM in assay [6]. The GI50 in assay [7] was 0.692 µM; in assay [8], 0.521 µM; in assay [9] it was 0.611 µM; in assay [10], 0.587 µM. Moreover, the TGI in assay [1] came to 19.1 µM; in assay [2], 5.05 µM; in assay [3], 2.9 µM; in assay [4], 20.1 µM; in assay [5], 13.1 µM; in assay [6], 9.98 µM. In addition, the TGI stood at 42.7 µM in assay [7], 14.3 µM in [8], 12.5 µM in [9] and 13.4 µM in assay [10].

The record behind these values is PubChem BioAssay (NCI).
